According to ChEMBL document CHEMBL1152822, “Genetic analysis of the dihydrofolate reductase-thymidylate synthase gene from geographically diverse isolates of Plasmodium malariae” (Antimicrob Agents Chemother, 2007):
Values after ≈ are worked out from the molar mass of the structure shown.

Experiments:
Assay type in all cases: functional, organism-based
Plasmodium malariae = test: Antimalarial activity as inhibition of schizont maturation against Plasmodium malariae Thai after 40 - 70 hrs
Plasmodium falciparum = test: Antiplasmodial activity against Plasmodium falciparum
Plasmodium vivax = test: Antiplasmodial activity against Plasmodium vivax

Row | IC50 (Plasmodium malariae) [µg/mL] | IC50 (Plasmodium falciparum) [µg/mL] | IC50 (Plasmodium vivax) [µg/mL] | Structure (SMILES)
1 | 0.00224 (≈ 0.00901 µM) | 4.08 (≈ 16.4 µM) | 0.008 (≈ 0.0322 µM) | CCc1nc(N)nc(N)c1-c1ccc(Cl)cc1 [PYRIMETHAMINE]
2 | 0.0749 |  | 0.05 | CCN(CC)CCCC(C)Nc1ccnc2cc(Cl)ccc12.Cl (stereo not given)
